# Experimental data: patent publication US11432549B2, “Carbamoyl triazolinone based herbicide combinations and method of use” (Arysta LifeScience Corporation, priority 2009, dated 2022)
# How the values were obtained:
# Assay type in all cases: in vivo
# Digitaria ciliaris = test: Ex 1 pot test, visual % damage
# [1] = system: Ipomoea gradifolia (IAOGR); test: Ex 4 pre-emergence, visual % damage; conditions: kg/ha or L/ha: Amicarbazone 1.50, Gesapax 5.00, Karmex 5.00, Provence 0.20, Sencor 3.50, alone
# Description: DINAMIC® (amicarbazone) in combination of various herbicides listed in Table 4-1 were tested for herbicidal activity.
# The herbicidal effect was observed by comparing the extent of Ipomoea gradifolia (IAOGR) treated with the compounds against that occurring in similar non-treated control. Herbicidal effect was visually assessed and recorded at 14, 23, 36, 49, 65 and 77 days after treatment (DAT). Damage by the herbicidal compositions was evaluated with reference to a scale of 0% to 100% in comparison with untreated control. 0% means no damage and 100% means complete destruction of the plants. […] The theoretical herbicidal effect index were calculated based on Colby and the values were indicated in bracket ( ). […] Some of the observed herbicidal effects were the same as the theoretical hervicidal effects, which indicate additive effects. The underlined values in the table indicate that the observed weed killing is greater than calculated from the Colby formula and therefore indicates a synergistic weed killing effect or activity.
# Green Foxtail = test: Ex 5/7 greenhouse spray, bleaching/injury ratings
# Description: (§1) Containers were watered as needed based on species and water usage. The greenhouse was heated to keep temperatures above 50° F. (10° C.) and ventilated as needed to keep temperatures below 100° F. (38° C.). Typical daytime temperatures in the greenhouse were 80-90° F. (27-32° C.) and nighttime temperatures were between 50-60° F. (10-16° C.). The soil employed was Promix BX potting soil. Overall moisture conditions were normal and the closest weather station was on-site. Conditions and equipment employed in this Example are tabulated below in Tables 5-1 and 5-2.
# (§2) All containers were moved outdoors from the greenhouse and arranged in blocks by treatment for the herbicide applications. A single spray application was applied to each block containing four repetitions of each species for each treatment. Plants were then immediately returned to the greenhouse and irrigated with approximately ¼″ water 1-3 hrs after treatment with a hose end sprayer. Only the Poa plants were trimmed with scissors two days prior to treatment at a height of approximately 3 inches.
# (§3) Referring to FIGS. 2A-B, 3A-C, 4A-C, and 5A-D, all ratings of injury or bleaching are based on a scale from 1 to 9. […] Any bleaching measurement 4 and above was considered unacceptable for desirable turf species. In injury measurements, 1 indicates no injury while 9 indicates a dead plant. Any injury measurement 4 and above was considered unacceptable for desirable turf species). Density correlates with percent cover where 1 indicates no grass while 9 indicates a full pot.
# (§4) Replications employed include 4, Untreated treatments: 1, Design: Randomized Complete Block, Treatment units: US standard, Treated plot size Width: 4 feet, Treated plot size Length: 4 feet, Application volume: 50 gal/ac, Mix size: 0.5562 liters, Mix overage: 100%, Format definitions: G-All7.DEF, G-All7.FRM.
# (§5) In evaluating synergism, the data from Example 5 above were converted to % of control. This was done based on the data provided on a 1-9 scale detailed in Example 5. Expected values were computed from the % of control data by the formula for expected control=[…], where A is the % of control value for herbicide A alone and B is the % of control value for herbicide B alone.
# Crabgrass sp. = test: Ex 5/7 greenhouse spray, bleaching/injury/density ratings
# Description: as §1, §2
# Transplanted tillering Kentucky Bluegrass was 5 to 6 months old, transplanted Poa annua was 5 to 6 months old. Tall fescue was seeded into the crabgrass pots. St. Augustine plants (Floratam and Saphire) were shipped from Port St. Lucie, Fla. Only two replicates of Saphire St. Augustine grass were used due to plant availability.
# as §3, §4, §5
# [2] = rating 1, 0.022 lbs ai/A (0.5 oz/A)
# [3] = rating 1, 0.13 lbs ai/A (3 oz/A)
# [4] = rating 2, 0.022 lbs ai/A (0.5 oz/A)
# [5] = rating 2, 0.13 lbs ai/A (3 oz/A)
# [6] = rating 3, 0.022 lbs ai/A (0.5 oz/A)
# [7] = rating 3, 0.13 lbs ai/A (3 oz/A)
# [8] = rating 4, 0.022 lbs ai/A (0.5 oz/A)
# [9] = rating 4, 0.13 lbs ai/A (3 oz/A)
# [10] = rating 5, 0.022 lbs ai/A (0.5 oz/A)
# [11] = rating 5, 0.13 lbs ai/A (3 oz/A)
# [12] = rating 6, 0.022 lbs ai/A (0.5 oz/A)
# [13] = rating 6, 0.13 lbs ai/A (3 oz/A)
# [14] = rating 7, 0.022 lbs ai/A (0.5 oz/A)
# [15] = rating 7, 0.13 lbs ai/A (3 oz/A)
smiles,measurement,setting,value
"CC(C)c1nn(C(=O)NC(C)(C)C)c(=O)n1N [Amicarbazone, 4-amino-5-isopropyl-2-(tert-butyl-aminocarbonyl)-2,4-dihydro-3H-1,2,4-triazol-3-one]",herbicide effect,"Digitaria ciliaris; 50 g/ha and 100 g/ha, one-leaf stage",small
same,percentage control,"Digitaria ciliaris; single application 50 g/ha, 5 DAT",24%
same,percentage control,"Digitaria ciliaris; single application 50 g/ha, 8 DAT",38%
same,percentage control,"Digitaria ciliaris; single application 50 g/ha, 14 DAT",34%
same,percentage control,"Digitaria ciliaris; single application 50 g/ha, 21 DAT",34%
same,percentage control,"Digitaria ciliaris; single application 50 g/ha, 28 DAT",26%
same,percentage control,"Digitaria ciliaris; single application 100 g/ha, 5 DAT",70%
same,percentage control,"Digitaria ciliaris; single application 100 g/ha, 8 DAT",78%
same,percentage control,"Digitaria ciliaris; single application 100 g/ha, 14 DAT",82%
same,percentage control,"Digitaria ciliaris; single application 100 g/ha, 21 DAT",74%
same,percentage control,"Digitaria ciliaris; single application 100 g/ha, 28 DAT",66%
same,percentage control,"Digitaria ciliaris; single application 200 g/ha, 5 DAT",92%
same,percentage control,"Digitaria ciliaris; single application 200 g/ha, 8 DAT",96%
same,percentage control,"Digitaria ciliaris; single application 200 g/ha, 14 DAT",98%
same,percentage control,"Digitaria ciliaris; single application 200 g/ha, 21 DAT",86%
same,percentage control,"Digitaria ciliaris; single application 200 g/ha, 28 DAT",86%
same,percentage control,[1]; 14 DAT,98%
same,percentage control,[1]; 23 DAT,98%
same,percentage control,[1]; 36 DAT,98%
same,percentage control,[1]; 49 DAT,98%
same,percentage control,[1]; 65 DAT,96%
same,percentage control,[1]; 77 DAT,97%
same,Green Foxtail bleaching,Green Foxtail; [2],100 % of control
same,Green Foxtail injury,Green Foxtail; [2],97
same,Green Foxtail bleaching,Green Foxtail; [3],100 % of control
same,Green Foxtail injury,Green Foxtail; [3],67
same,Green Foxtail bleaching,Green Foxtail; [4],104 % of control
same,Green Foxtail injury,Green Foxtail; [4],94
same,Green Foxtail bleaching,Green Foxtail; [5],104 % of control
same,Green Foxtail injury,Green Foxtail; [5],69
same,Green Foxtail bleaching,Green Foxtail; [6],104 % of control
same,Green Foxtail injury,Green Foxtail; [6],97
same,Green Foxtail bleaching,Green Foxtail; [7],104 % of control
same,Green Foxtail injury,Green Foxtail; [7],81
same,Green Foxtail bleaching,Green Foxtail; [8],104 % of control
same,Green Foxtail injury,Green Foxtail; [8],97
same,Green Foxtail bleaching,Green Foxtail; [9],104 % of control
same,Green Foxtail injury,Green Foxtail; [9],84
same,Green Foxtail bleaching,Green Foxtail; [10],160 % of control
same,Green Foxtail injury,Green Foxtail; [10],102
same,Green Foxtail bleaching,Green Foxtail; [11],106 % of control
same,Green Foxtail injury,Green Foxtail; [11],77
same,Green Foxtail injury,Green Foxtail; [12],97
same,Green Foxtail injury,Green Foxtail; [13],73
same,Green Foxtail injury,Green Foxtail; [14],268
same,Green Foxtail injury,Green Foxtail; [15],144
same,Crabgrass bleaching,Crabgrass sp.; [2],97
same,Crabgrass cover,Crabgrass sp.; [2],88
same,Crabgrass injury,Crabgrass sp.; [2],94
same,Crabgrass bleaching,Crabgrass sp.; [3],100
same,Crabgrass cover,Crabgrass sp.; [3],67
same,Crabgrass injury,Crabgrass sp.; [3],100
same,Crabgrass bleaching,Crabgrass sp.; [4],100
same,Crabgrass cover,Crabgrass sp.; [4],94
same,Crabgrass injury,Crabgrass sp.; [4],100
same,Crabgrass bleaching,Crabgrass sp.; [5],100
same,Crabgrass cover,Crabgrass sp.; [5],67
same,Crabgrass injury,Crabgrass sp.; [5],100
same,Crabgrass bleaching,Crabgrass sp.; [6],100
same,Crabgrass cover,Crabgrass sp.; [6],100
same,Crabgrass injury,Crabgrass sp.; [6],100
same,Crabgrass bleaching,Crabgrass sp.; [7],100
same,Crabgrass cover,Crabgrass sp.; [7],72
same,Crabgrass injury,Crabgrass sp.; [7],100
same,Crabgrass bleaching,Crabgrass sp.; [8],100
same,Crabgrass injury,Crabgrass sp.; [8],97
same,Crabgrass bleaching,Crabgrass sp.; [9],100
same,Crabgrass injury,Crabgrass sp.; [9],94
same,Crabgrass bleaching,Crabgrass sp.; [10],97
same,Crabgrass injury,Crabgrass sp.; [10],97
same,Crabgrass bleaching,Crabgrass sp.; [11],100
same,Crabgrass injury,Crabgrass sp.; [11],94
same,Crabgrass bleaching,Crabgrass sp.; [12],97
same,Crabgrass injury,Crabgrass sp.; [12],94
same,Crabgrass bleaching,Crabgrass sp.; [13],100
same,Crabgrass injury,Crabgrass sp.; [13],94
same,Crabgrass bleaching,Crabgrass sp.; [14],100
same,Crabgrass bleaching,Crabgrass sp.; [15],100
same,Crabgrass bleaching,"Crabgrass sp.; rating 8, 0.022 lbs ai/A (0.5 oz/A)",100
same,Crabgrass bleaching,"Crabgrass sp.; rating 8, 0.13 lbs ai/A (3 oz/A)",100
